US20200157151A1, “PEPTIDE COMPOUNDS, CONJUGATE COMPOUNDS AND USES THEREOF FOR TREATING INFLAMMATORY DISEASES” (TRANSFERT PLUS, S.E.C., priority 2017, published 2020)
pKd: −log10 of the molar value. Square brackets hold non-standard residues; d marks the D form. Peptide text beside a SMILES is read from it. Nle = CCCC[C@H](N)C(=O)O

Experiments:
[1] = test system: TNF-α-induced COX-2 expression in human HT-29 colon cancer cells; conditions: 2 h pre-treatment, 10 ng/mL TNF-α 24 h, HT-29, FIG. 7
Procedure: (§1) Cells were pre-treated for 2 h with indicated compounds in serum-free medium before the addition of 10 ng/mL TNF-α for 24 h. Cells were lysed and the levels protein expression of COX-2 were monitored by immunoblotting. […] For each sample, the COX-2 level was corrected for GAPDH (a loading control) and normalized to those seen in TNF-α control (value=100%).
as §1, with “the” for “the levels”, “expression levels” for “expression”

[2] = Stability at room temperature followed by absorbance over time; conditions: FIG. 11
Description: FIG. 11 is a graph showing absorbance of Curcumin conjugates and free Curcumin.

[3] = biological target: T1, Human recombinant Sortilin chimera protein (Homo sapiens, UniProt Q99523); experiment: Surface plasmon resonance (Biacore) interaction with immobilized Sortilin; format: binding; conditions: SPR; for Affinity for Sortilin, in words: comparison between peptides and Sortilin ligands
T1 construct: unnamed fusion partner or tag ('chimera'); purchased R&D Systems 3154-ST
T1 sequence (Q99523 78-755 limits assumed): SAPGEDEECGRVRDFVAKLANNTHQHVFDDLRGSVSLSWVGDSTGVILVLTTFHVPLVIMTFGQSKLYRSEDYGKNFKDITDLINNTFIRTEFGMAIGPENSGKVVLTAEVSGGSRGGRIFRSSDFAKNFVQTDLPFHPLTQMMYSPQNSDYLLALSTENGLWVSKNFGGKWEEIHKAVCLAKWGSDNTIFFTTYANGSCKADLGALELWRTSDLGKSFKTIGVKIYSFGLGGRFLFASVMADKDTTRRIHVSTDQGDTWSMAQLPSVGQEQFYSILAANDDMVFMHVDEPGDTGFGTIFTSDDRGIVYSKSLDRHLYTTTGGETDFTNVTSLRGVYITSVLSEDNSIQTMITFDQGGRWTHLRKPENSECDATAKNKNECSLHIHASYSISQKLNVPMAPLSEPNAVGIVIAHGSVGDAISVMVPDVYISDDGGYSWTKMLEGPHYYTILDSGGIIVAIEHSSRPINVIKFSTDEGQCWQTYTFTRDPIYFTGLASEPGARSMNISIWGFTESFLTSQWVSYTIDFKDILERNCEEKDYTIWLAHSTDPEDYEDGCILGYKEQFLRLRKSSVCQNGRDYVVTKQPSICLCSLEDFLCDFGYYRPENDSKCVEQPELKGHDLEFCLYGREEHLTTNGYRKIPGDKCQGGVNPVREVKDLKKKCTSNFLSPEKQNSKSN
Description: FIG. 12 is schematic representation of real time interaction analysis using Surface Plasmon Resonance (SPR) and a Biacore instrument.
Further tests were made so as to investigate interaction of the peptide compounds of the present disclosure with Sortilin. Such tests were made using real-time surface plasmon resonance (Biacore) (see FIG. 12).

[4] = test system: TNF-α-induced IκB phosphorylation in human HT-29 colon cancer cells; experiment: Inhibition of TNF-α-induced IκB phosphorylation in HT-29 cells; format: cell-based; conditions: 24 h pre-treatment, 100 ng/mL TNF-α 5 min, HT-29, FIG. 17; at a lower concentration than Curcumin
Description: FIG. 8A) Immunodetection of IκB phosphorylation by TNF-α is shown.
One of the inflammatory pathways induced by TNF-α leads to the phosphorylation of IkB (FIG. 1), a key protein in inflammation. As expected, the addition of TNF-α to human HT-29 colon cancer cells triggered the phosphorylation of IkB (pIkB) (FIG. 8).
One of the inflammatory pathways induced by TNF-α leads to the phosphorylation IkB (see FIG. 1), a key protein in inflammation. It was observed that the addition of TNF-α to human HT-29 colon cancer cells triggered the phosphorylation of IkB (pIkB) (FIGS. 17A and 17B).

[5] = test system: TNF-α-induced NFκB phosphorylation in human MDA-MB231 breast cancer cells; experiment: Inhibition of TNF-α-induced NFκB phosphorylation in MDA-MB231 cells; format: cell-based; conditions: 24 h pre-treatment, 100 ng/mL TNF-α 5 min, MDA-MB231, FIG. 18
Description: FIG. 9A) Immunodetection of phosphorylated NFκB by TNF-α is shown.
FIGS. 9 and 10 are other examples of the Curcumin conjugate (KBC-201)'s effect on the TNF-α-induced signaling pathways in two other cancer cell models.
Results presented in FIGS. 18A and 18B show now that the peptide alone (KBP-201) can reduce the TNF-α-induced NFκB phosphorylation by about 30%.
In FIG. 18A, immunodetection of NFκB phosphorylation by TNF-α is shown.

[6] = test system: human HT-29 colorectal cancer cells; experiment: Time-course uptake by flow cytometry (cell-associated fluorescence); format: cell-based; conditions: 5 μM, 37° C., HT-29 cells, FIG. 4B
Procedure: FIG. 4 is a series of charts illustrating higher and sustained uptake of KBC-201 (FIG. 4A). At the same concentration (5 μM), KBC-201 generates about half the fluorescence compared to free curcumin (Ex.: 488 nm, Em.: 530 nm) (FIG. 4B). Time-course uptake of KBC-201 (full line) and free curcumin (dotted line) in human HT-29 colorectal cancer cells. HT-29 cells were incubated at 37° C. with 5 μM of KBC-201 or curcumin at various times, trypsinized, washed, and cell-associated fluorescence uptake was quantified using a BD Accuri™ C6 flow cytometer.
(§2) The uptake of Curcumin conjugate or free Curcumin was measured as a function of time in human HT-29 colon cancer cells (FIG. 4). […] Indeed, the Curcumin conjugate (KBC-201) is less fluorescent by about 2-3 folds when compared to free Curcumin. […] The uptake of both KBC-201 and free Curcumin was next measured in the presence of Sortilin ligands (FIG. 5B). […] Taken together, data of the pharmacological inhibition using Sortilin ligands and the silencing of Sortlin expression confirm that the Curcumin conjugate is internalized via a Sortilin-dependent mechanism.

Sortilin receptor = biological target: T2, Sortilin receptor (Homo sapiens, UniProt Q99523); experiment: Sortilin-mediated uptake in HT-29 cells (siRNA silencing and competition with Sortilin ligands); format: cell-based; conditions: 5 μM; for Uptake when Sortilin expression is reduced by siRNA: 2 h, 37° C., siSortilin vs siScrambled HT-29 cells, FIG. 5A; for Uptake in the presence of Sortilin ligands: excess free peptide (50 μM), neurotensin (10 μM) or progranulin (1 nM), HT-29 cells, FIG. 5B
T2 construct: Sortilin-deficient (siSortilin) HT-29 colorectal cancer cells; endogenous in cells; host or cells: HT-29 human colorectal cancer cells
T2 sequence (Q99523 78-831): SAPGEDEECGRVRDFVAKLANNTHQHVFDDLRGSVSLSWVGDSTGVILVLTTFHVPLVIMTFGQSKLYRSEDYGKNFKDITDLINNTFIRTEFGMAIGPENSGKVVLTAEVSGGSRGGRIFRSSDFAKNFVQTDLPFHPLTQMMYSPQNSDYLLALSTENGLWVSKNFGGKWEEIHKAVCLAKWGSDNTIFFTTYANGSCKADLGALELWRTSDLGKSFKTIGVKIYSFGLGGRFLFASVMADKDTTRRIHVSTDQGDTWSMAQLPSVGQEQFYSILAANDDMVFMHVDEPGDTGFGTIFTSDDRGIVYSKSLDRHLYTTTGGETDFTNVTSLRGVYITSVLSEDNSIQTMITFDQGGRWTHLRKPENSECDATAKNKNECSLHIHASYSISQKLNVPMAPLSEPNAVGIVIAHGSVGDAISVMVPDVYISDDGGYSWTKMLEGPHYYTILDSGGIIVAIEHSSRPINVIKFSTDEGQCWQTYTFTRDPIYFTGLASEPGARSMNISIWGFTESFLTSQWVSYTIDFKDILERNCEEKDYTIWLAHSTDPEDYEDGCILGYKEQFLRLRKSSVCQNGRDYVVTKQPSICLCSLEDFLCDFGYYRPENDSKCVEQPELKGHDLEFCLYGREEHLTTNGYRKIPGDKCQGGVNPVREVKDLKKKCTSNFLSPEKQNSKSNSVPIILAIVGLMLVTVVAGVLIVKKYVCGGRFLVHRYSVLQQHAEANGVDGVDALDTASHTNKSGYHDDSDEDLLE
Procedure: FIG. 5 is a series of charts showing Sortilin-mediated uptake of KBC-201 in human colorectal cancer cells, FIG. 5A) Uptake of 5 μM of KBC-201 or free curcumin were performed at 37° C. in control (siScrambled) or Sortilin-deficient (siSortilin) HT-29 colorectal cancer cells. After a 2 h incubation, cells were trypsinized to remove non-internalized products, washed 3-times with ice-cold PBS and cell-associated fluorescence was quantified using a BD Accuri™ C6 flow cytometer. […] Cell-associated fluorescence uptake was quantified using a BD Accuri™ C6 flow cytometer.
as §2

Acetyl-GVRAK(curcumin)AGVRN(Nle)FK(curcumin)SESY [KBC-106]
Inhibition of TNFα-induced COX-2 expression, comparison of two conjugates [1]: more potent than free Curcumin | Stability (absorbance over time) [2]: more stable

RAP: receptor-associated protein, a Sortilin ligand [reference compound]
pKd ([3]; Sortilin immobilized on CM5 chip, KD calculated with Bia Evaluation software from sensorgrams of FIGS. 13-16, read-out: Affinity (KD)): 8.38

CC(=O)N[C@@H](Cc1ccc(O)cc1)C(=O)N[C@@H](CCCCN)C(=O)N[C@@H](CO)C(=O)N[C@@H](CC(C)C)C(=O)N[C@@H](CCCNC(=N)N)C(=O)N[C@@H](CCCNC(=N)N)C(=O)N[C@@H](CCCCN)C(=O)N[C@@H](C)C(=O)N1CCC[C@H]1C(=O)N[C@@H](CCCNC(=N)N)C(=O)N[C@@H](Cc1c[nH]c2ccccc12)C(=O)N[C@@H](CC(=O)O)C(=O)N[C@@H](C)C(=O)N1CCC[C@H]1C(=O)N[C@@H](CC(C)C)C(=O)N[C@@H](CCCNC(=N)N)C(=O)N[C@@H](CC(=O)O)C(=O)N1CCC[C@H]1C(=O)N[C@@H](C)C(=O)N[C@@H](CC(C)C)C(=O)N[C@@H](CCCNC(=N)N)C(=O)N[C@@H](CCC(N)=O)C(=O)N[C@@H](CC(C)C)C(=O)N[C@@H](CC(C)C)C(=O)O [KBP-201]
Affinity for Sortilin, in words [3]: better affinity for Sortilin than Neurotensin | Affinity for Sortilin, in words ([3]; listed as KB-P201): better affinity | Reduction of TNF-α-induced phosphorylation of IkB, maximal effect [4]: 40% | Reduction of TNF-α-induced NFκB phosphorylation [5]: about 30%

COc1cc(/C=C/C(=O)CC(=O)/C=C/c2ccc(O)c(OC)c2)ccc1O [Curcumin, reference compound]
Uptake over time (cell-associated fluorescence) ([6]; listed as free Curcumin): transient and low intracellular accumulation | Uptake over time (cell-associated fluorescence) ([6]; listed as free curcumin): transient uptake | Uptake when Sortilin expression is reduced by siRNA (Sortilin receptor; listed as free Curcumin): unaffected | Uptake when Sortilin expression is reduced by siRNA (Sortilin receptor; listed as free curcumin): not that of free curcumin | Uptake in the presence of Sortilin ligands (Sortilin receptor; listed as free Curcumin): unaffected by none of them | Uptake in the presence of Sortilin ligands (Sortilin receptor; listed as free curcumin): not that of free curcumin | Stability (absorbance over time) [2]: decreased more rapidly over time

CCCC[C@H](NC(=O)[C@H](CC(N)=O)NC(=O)[C@H](CCCNC(=N)N)NC(=O)[C@@H](NC(=O)CNC(=O)[C@H](C)NC(=O)[C@H](CCCCN)NC(=O)[C@H](C)NC(=O)[C@H](CCCNC(=N)N)NC(=O)[C@@H](NC(=O)CNC(C)=O)C(C)C)C(C)C)C(=O)N[C@@H](Cc1ccccc1)C(=O)N[C@@H](CCCCN)C(=O)N[C@@H](CO)C(=O)N[C@@H](CCC(=O)O)C(=O)N[C@@H](CO)C(=O)N[C@@H](Cc1ccc(O)cc1)C(=O)O [KBP-106] (Ac-GVRAKAGVRN[Nle]FKSESY-OH; C-terminus assumed)
Affinity for Sortilin, in words [3]: better affinity for Sortilin than Neurotensin
